Data taken from patent US11744816B2, “Fixed dose combinations and formulations comprising ETC1002 and ezetimibe and methods of treating or reducing the risk of cardiovascular disease” (Esperion Therapeutics, Inc., priority 2015, dated 2023).
“Also recorded” adds a separate entry of the source.

Columns and labels:
[1] = test system: hypercholesterolemic patients; experiment: Phase 2b double-blind trial: percent changes from baseline to week 12 in lipids and CRP; format: in vivo, human; settings: for Percent change from baseline to week 12 in Apolipoprotein A-I / Percent change from baseline to week 12 in Apolipoprotein B / Percent change from baseline to week 12 in HDL particle number / Percent change from baseline to week 12 in HDL-C / Percent change from baseline to week 12 in LDL particle number / Percent change from baseline to week 12 in LDL-C / Percent change from baseline to week 12 in Non-HDL-C / Percent change from baseline to week 12 in Total cholesterol / Percent change from baseline to week 12 in VLDL particle number: 12 weeks, mITT; for Percent change from baseline to week 12 in Apolipoprotein A-I / Percent change from baseline to week 12 in Apolipoprotein B / Percent change from baseline to week 12 in HDL particle number / Percent change from baseline to week 12 in HDL-C / Percent change from baseline to week 12 in LDL particle number / Percent change from baseline to week 12 in LDL-C / Percent change from baseline to week 12 in Non-HDL-C / Percent change from baseline to week 12 in Total cholesterol: LS mean ± SE; for Percent change from baseline to week 12 in VLDL particle number: median (interquartile range)
Method: LDL-C was calculated using the Friedewald equation.
The primary endpoint was the percent change from baseline to week 12 in calculated LDL-C in patients treated with ETC-1002 monotherapy versus those treated with EZE alone. Secondary endpoints included the dose-response relationship between ETC-1002 and the percent change in LDL-C from baseline to week 12, the percent change in LDL-C from baseline to week 12 in patients treated with ETC-1002 plus EZE versus those treated with EZE alone, and the percent change from baseline to week 12 for all treatment groups in LDL particle number, apolipoprotein B, total cholesterol, non-high-density lipoprotein cholesterol (non-HDL-C), HDL-C, HDL particle number, apolipoprotein A-I, triglycerides, very-low-density lipoprotein (VLDL) particle number, and high-sensitivity C-reactive protein (CRP). Lipoprotein particle number was measured using nuclear magnetic resonance […].
An analysis of covariance was used to compare each ETC-1002 treatment group with EZE monotherapy for each of the efficacy endpoints. The primary model included the effects of treatment and statin intolerance and the baseline value as a covariate. Baseline was defined as the mean of values from weeks −1 and 0 for LDL-C, non-HDL-C, total cholesterol, HDL-C, and triglycerides. For all other lipid and biomarker measures, baseline was defined as the last value before the first dose of study drug. Missing values at week 12 were imputed using the last-observation-carried-forward procedure. When LDL-C could not be calculated (i.e., triglycerides >400 mg/dL), beta-quantification measurements were used to determine LDL-C values. Least-squares (LS) means and standard errors were obtained for each treatment group; differences in LS means and p-values were obtained for the treatment comparisons. Graphical methods (e.g., normal probability plot and histogram of residuals, plot of residuals vs. predicted values) or analytical methods (e.g., Shapiro-Wilk test), or both, were used to assess the model assumptions. Because of departures from normality observed in the parameters of triglycerides, CRP, and VLDL particle number, nonparametric analyses were performed for these measures, with p-values obtained from the Wilcoxon rank-sum test and median values presented.
Percent changes from baseline in LDL-C also were summarized by statin-tolerance subgroup. To assess the dose-response relationship for ETC-1002 monotherapy, the primary analysis of covariance model was used for the comparison of the ETC-1002 120 mg and ETC-1002 180 mg. Statistical testing of the efficacy endpoints was 2-sided and conducted at the 5% level of significance with no adjustment for multiple comparisons.

[2] = test system: hypercholesterolemic patients; experiment: Phase 2b double-blind trial: safety, treatment-emergent adverse events and laboratory abnormalities; settings: for Most common AEs: ALT increased / Most common AEs: AST increased / Most common AEs: Arthralgia / Most common AEs: Back pain / Most common AEs: Blood CK increased / Most common AEs: Constipation / Most common AEs: Headache / Most common AEs: Myalgia / Most common AEs: Nasopharyngitis / Most common AEs: Upper respiratory tract infection / Most common AEs: Urinary tract infection / Treatment-emergent AEs: Any AE(s) / Treatment-emergent AEs: Discontinuation due to AE(s) / Treatment-emergent AEs: Serious AE(s) / Treatment-emergent AEs: Study drug-related AE(s) / Any muscle-related AE / Muscle-related AE leading to discontinuation / Muscle-related AEs: Muscle spasms / Muscle-related AEs: Muscular weakness / Muscle-related AEs: Musculoskeletal chest pain / Muscle-related AEs: Musculoskeletal stiffness / Muscle-related AEs: Myalgia / Muscle-related AEs: Pain in extremity / Muscle-related AEs: Sensation of heaviness / Muscle-related AEs: Musculoskeletal pain: 12 weeks; for Most common AEs: ALT increased / Most common AEs: AST increased / Most common AEs: Arthralgia / Most common AEs: Back pain / Most common AEs: Blood CK increased / Most common AEs: Constipation / Most common AEs: Headache / Most common AEs: Myalgia / Most common AEs: Nasopharyngitis / Most common AEs: Upper respiratory tract infection / Most common AEs: Urinary tract infection / Treatment-emergent AEs: Any AE(s) / Treatment-emergent AEs: Discontinuation due to AE(s) / Treatment-emergent AEs: Serious AE(s) / Treatment-emergent AEs: Study drug-related AE(s): safety population; for Myalgia, patients affected: entire study population
Method: The study population included both statin-tolerant and statin-intolerant participants. Statin intolerance was defined as the inability to tolerate ≥2 statins because of muscle-related symptoms such as pain, weakness, or cramping that began or increased during statin therapy and resolved on statin discontinuation. At least 1 statin must have been administered at the lowest approved daily dose, defined as rosuvastatin 5 mg, atorvastatin 10 mg, simvastatin 10 mg, lovastatin 20 mg, pravastatin 40 mg, fluvastatin 40 mg, or pitavastatin 2 mg. Treatment with less than the lowest approved daily dose of a statin (i.e., skipping days) was considered equivalent to not tolerating 1 statin at the lowest approved daily dose.
Patients underwent a 5-week washout of all lipid-regulating drugs and dietary supplements and abstained from these drugs and supplements throughout the study. Patients also underwent a 5-week patient-only-blinded placebo run-in during the screening period (week −5 to week 0). This single-blind placebo run-in period was used to eliminate patients with muscle-related AEs during placebo treatment. Patients reporting new or worsening, unexplained muscle-related AEs during this run-in period were excluded from the study.
Patients were stratified (1:1) by history of statin intolerance and randomized at week 0 in a 4:4:4:1:1 ratio to once-daily treatment with capsules containing ETC-1002 120 mg, ETC-1002 180 mg, EZE, ETC-1002 120 mg plus EZE, or ETC-1002 180 mg plus EZE.
The safety of ETC-1002 was assessed using treatment-emergent AEs; hematology, serum chemistry, and urinalysis laboratory values; physical examination findings, vital sign measurements, electrocardiogram (ECG) readings; weight; and ankle and waist circumference measurements. AEs were coded using the Medical Dictionary for Regulatory Activities version 16.0 and evaluated by the investigator for severity and relation to study drug. Muscle-related AEs were defined as those from the system organ class of musculoskeletal and connective tissue disorders, except for those that were not obviously muscle related Terms included in the muscle-related AFE analysis were selected from this system organ class after database lock and before unblinding.
Safety analyses were performed on the safety population, which included randomized patients who received at least 1 dose of study drug. Baseline patient characteristics were summarized for the safety population by treatment group and statin-tolerance subgroup.
Muscle-related AEs also were summarized by statin-tolerance subgroup.

[3] = ETC-1002 120 mg once daily, statin-intolerant patients
[4] = ETC-1002 120 mg once daily, statin-tolerant patients
[5] = ETC-1002 180 mg once daily, statin-intolerant patients
[6] = ETC-1002 180 mg once daily, statin-tolerant patients

CC(C)(CCCCCC(O)CCCCCC(C)(C)C(=O)O)C(=O)O [ETC-1002, 8-hydroxy-2,2,14,14 tetramethylpentadecanedioic acid]
Decrease in median CRP from baseline to week 12 endpoint ([1]; ETC-1002 120 mg): 30%
LDL-C reduction from baseline to week 12 ([1]; ETC-1002 120 mg alone): 27%
Percent change from baseline to week 12 in Apolipoprotein A-I ([1]; ETC-1002 120 mg once daily): −0.2 ± 1.1%
Percent change from baseline to week 12 in Apolipoprotein B ([1]; ETC-1002 120 mg once daily): −19.3 ± 1.3 %
Percent change from baseline to week 12 in HDL particle number ([1]; ETC-1002 120 mg once daily): 5.0 ± 1.3%
Percent change from baseline to week 12 in HDL-C ([1]; ETC-1002 120 mg once daily): −5.8 ± 1.4 %
Percent change from baseline to week 12 in LDL particle number ([1]; ETC-1002 120 mg once daily): −21.8 ± 1.7 %
Percent change from baseline to week 12 in LDL-C ([1]; ETC-1002 120 mg once daily): −27.5 ± 1.3 %
Percent change from baseline to week 12 in Non-HDL-C ([1]; ETC-1002 120 mg once daily): −23.2 ± 1.2 %
Percent change from baseline to week 12 in Total cholesterol ([1]; ETC-1002 120 mg once daily): −19.3 ± 0.9 %
Percent change from baseline to week 12 in VLDL particle number ([1]; ETC-1002 120 mg once daily): −2.7 (68.5) %
Decrease in median CRP from baseline to week 12 endpoint ([1]; ETC-1002 180 mg): 40%
LDL-C reduction from baseline to week 12 ([1]; ETC-1002 180 mg alone): 30%
Percent change from baseline to week 12 in Apolipoprotein A-I ([1]; ETC-1002 180 mg once daily): 0.1 ± 1.2%
Percent change from baseline to week 12 in Apolipoprotein B ([1]; ETC-1002 180 mg once daily): −21.3 ± 1.3 %
Percent change from baseline to week 12 in HDL particle number ([1]; ETC-1002 180 mg once daily): 6.2 ± 1.4%
Percent change from baseline to week 12 in HDL-C ([1]; ETC-1002 180 mg once daily): −4.8 ± 1.4 %
Percent change from baseline to week 12 in LDL particle number ([1]; ETC-1002 180 mg once daily): −24.6 ± 1.8 %
Percent change from baseline to week 12 in LDL-C ([1]; ETC-1002 180 mg once daily): −30.1 ± 1.3 %
Percent change from baseline to week 12 in Non-HDL-C ([1]; ETC-1002 180 mg once daily): −25.3 ± 1.1 %
Percent change from baseline to week 12 in Total cholesterol ([1]; ETC-1002 180 mg once daily): −20.7 ± 0.9 %
Percent change from baseline to week 12 in VLDL particle number ([1]; ETC-1002 180 mg once daily): 15.3 (80.5) %
LDL-C reduction from baseline to week 12 ([1]; ETC-1002 alone (120 mg or 180 mg), up to): up to 30%
Alanine aminotransferase or aspartate aminotransferase, or both, increased >3 times the upper limit of normal at any measurement ([2]; ETC-1002 120 mg): 1 patients
Serious AEs reported (events) ([2]; ETC-1002 120 mg): hemothorax; also recorded: sudden death
Most common AEs: ALT increased ([2]; ETC-1002 120 mg once daily): 0 n (%)
Most common AEs: AST increased ([2]; ETC-1002 120 mg once daily): 0 n (%)
Most common AEs: Arthralgia ([2]; ETC-1002 120 mg once daily): 4 (4%) n (%)
Most common AEs: Back pain ([2]; ETC-1002 120 mg once daily): 1 (1%) n (%)
Most common AEs: Blood CK increased ([2]; ETC-1002 120 mg once daily): 1 (1%) n (%)
Most common AEs: Constipation ([2]; ETC-1002 120 mg once daily): 3 (3%) n (%)
Most common AEs: Headache ([2]; ETC-1002 120 mg once daily): 3 (3%) n (%)
Most common AEs: Myalgia ([2]; ETC-1002 120 mg once daily): 3 (3%) n (%)
Most common AEs: Nasopharyngitis ([2]; ETC-1002 120 mg once daily): 3 (3%) n (%)
Most common AEs: Upper respiratory tract infection ([2]; ETC-1002 120 mg once daily): 6 (6%) n (%)
Most common AEs: Urinary tract infection ([2]; ETC-1002 120 mg once daily): 0 n (%)
Treatment-emergent AEs: Any AE(s) ([2]; ETC-1002 120 mg once daily): 50 (51%) n (%)
Treatment-emergent AEs: Discontinuation due to AE(s) ([2]; ETC-1002 120 mg once daily): 3 (3%) n (%)
Treatment-emergent AEs: Serious AE(s) ([2]; ETC-1002 120 mg once daily): 2 (2%) n (%)
Treatment-emergent AEs: Study drug-related AE(s) ([2]; ETC-1002 120 mg once daily): 13 (13%) n (%)
Any muscle-related AE [2, 3]: 7 (14%) n (%)
Muscle-related AE leading to discontinuation [2, 3]: 1 (2%) n (%)
Muscle-related AEs: Muscle spasms [2, 3]: 3 (6%) n (%)
Muscle-related AEs: Muscular weakness [2, 3]: 2 (4%) n (%)
Muscle-related AEs: Musculoskeletal chest pain [2, 3]: 0 n (%)
Muscle-related AEs: Musculoskeletal stiffness [2, 3]: 0 n (%)
Muscle-related AEs: Myalgia [2, 3]: 2 (4%) n (%)
Muscle-related AEs: Pain in extremity [2, 3]: 1 (2%) n (%)
Muscle-related AEs: Sensation of heaviness [2, 3]: 0 n (%)
Any muscle-related AE [2, 4]: 1 (2%) n (%)
Muscle-related AE leading to discontinuation [2, 4]: 0 n (%)
Muscle-related AEs: Muscle spasms [2, 4]: 0 n (%)
Muscle-related AEs: Musculoskeletal pain [2, 4]: 0 n (%)
Muscle-related AEs: Myalgia [2, 4]: 1 (2%) n (%)
Myalgia, patients affected ([2]; ETC-1002 120 mg): 3%
Alanine aminotransferase or aspartate aminotransferase, or both, increased >3 times the upper limit of normal at any measurement ([2]; ETC-1002 180 mg): 2 patients
Serious AEs reported (events) ([2]; ETC-1002 180 mg): pancreatitis relapse
Most common AEs: ALT increased ([2]; ETC-1002 180 mg once daily): 0 n (%)
Most common AEs: AST increased ([2]; ETC-1002 180 mg once daily): 0 n (%)
Most common AEs: Arthralgia ([2]; ETC-1002 180 mg once daily): 1 (1%) n (%)
Most common AEs: Back pain ([2]; ETC-1002 180 mg once daily): 1 (1%) n (%)
Most common AEs: Blood CK increased ([2]; ETC-1002 180 mg once daily): 4 (4%) n (%)
Most common AEs: Constipation ([2]; ETC-1002 180 mg once daily): 1 (1%) n (%)
Most common AEs: Headache ([2]; ETC-1002 180 mg once daily): 2 (2%) n (%)
Most common AEs: Myalgia ([2]; ETC-1002 180 mg once daily): 1 (1%) n (%)
Most common AEs: Nasopharyngitis ([2]; ETC-1002 180 mg once daily): 5 (5%) n (%)
Most common AEs: Upper respiratory tract infection ([2]; ETC-1002 180 mg once daily): 6 (6%) n (%)
Most common AEs: Urinary tract infection ([2]; ETC-1002 180 mg once daily): 4 (4%) n (%)
Treatment-emergent AEs: Any AE(s) ([2]; ETC-1002 180 mg once daily): 55 (55%) n (%)
Treatment-emergent AEs: Discontinuation due to AE(s) ([2]; ETC-1002 180 mg once daily): 6 (6%) n (%)
Treatment-emergent AEs: Serious AE(s) ([2]; ETC-1002 180 mg once daily): 1 (1%) n (%)
Treatment-emergent AEs: Study drug-related AE(s) ([2]; ETC-1002 180 mg once daily): 18 (18%) n (%)
Any muscle-related AE [2, 5]: 6 (12%) n (%)
Muscle-related AE leading to discontinuation [2, 5]: 2 (4%) n (%)
Muscle-related AEs: Muscle spasms [2, 5]: 2 (4%) n (%)
Muscle-related AEs: Muscular weakness [2, 5]: 1 (2%) n (%)
Muscle-related AEs: Musculoskeletal chest pain [2, 5]: 1 (2%) n (%)
Muscle-related AEs: Musculoskeletal stiffness [2, 5]: 0 n (%)
Muscle-related AEs: Myalgia [2, 5]: 1 (2%) n (%)
Muscle-related AEs: Pain in extremity [2, 5]: 1 (2%) n (%)
Muscle-related AEs: Sensation of heaviness [2, 5]: 0 n (%)
Any muscle-related AE [2, 6]: 0 n (%)
Muscle-related AE leading to discontinuation [2, 6]: 0 n (%)
Muscle-related AEs: Muscle spasms [2, 6]: 0 n (%)
Muscle-related AEs: Musculoskeletal pain [2, 6]: 0 n (%)
Muscle-related AEs: Myalgia [2, 6]: 0 n (%)
Myalgia, patients affected ([2]; ETC-1002 180 mg): 1%
